The results in this text go back to patent US10941162B2, “Heterocyclic compounds and uses thereof” (Infinity Pharmaceuticals, Inc., priority 2014, dated 2021).

In one experiment the target is PI3K α (Homo sapiens (Human), UniProt P42336). Kind of experiment: PI3-Kinase in vitro IC50 assay, α isoform. The class given is biochemical. An excerpt: (§1) A PI3-Kinase HTRF® assay kit (cat No. 33-016) purchased from Millipore Corporation is used to screen compounds provided herein. This assay uses specific, high affinity binding of the GRP1 pleckstrin homology (PH) domain to PIP3, the product of a Class 1A or 1B PI3 Kinase acting on its physiological substrate PIP2. During the detection phase of the assay, a complex is generated between the GST-tagged PH domain and biotinylated short chain PIP3. The biotinylated PIP3 and the GST-tagged PH domain recruited fluorophores (Streptavidin-Allophycocyanin and Europium-labeled anti-GST respectively) to form the fluorescence resonance energy transfer (FRET) architecture, generating a stable time-resolved FRET signal. The FRET complex is disrupted in a competitive manner by non-biotinylated PIP3, a product formed in the PI3 Kinase assay.
(§2) PI3 Kinase α, β, γ or δ activity is assayed using the PI3 Kinase HTRF®, assay kit (catalogue No. 33-016) purchased from Millipore Corporation. Purified recombinant PI3Kα (catalogue No. 14-602-K), PI3Kβ (catalogue No. 14-603-K), PI3Kγ (catalogue No. 14-558-K), and PI3Kδ (catalogue No. 14-604-K) are obtained from Millipore Corporation. Purified recombinant PI3K enzyme is used to catalyze the phosphorylation of phosphatidylinositol 4,5-bisphosphate (PIP2 at 10 μM) to phosphatidylinositol 3,4,5-trisphosphate (PIP3) in the presence of 10 μM ATP. The assay is carried out in 384-well format and detected using a Perkin Elmer EnVision Xcite Multilabel Reader. Emission ratios are converted into percent inhibitions and imported into GraphPad Prism software. The concentration necessary to achieve inhibition of enzyme activity by 50% (IC50) is calculated using concentrations ranging from 20 μM to 0.1 nM (12-point curve), IC50 values are determined using a nonlinear regression model available in GraphPad Prism 5.
(§3) Promega ADP-Glo Max assay kit (Cat. No. V7002) can be utilized to determine IC50 values for α, β, δ and γ isoforms of human Class I PI3 kinases (Millipore). Samples of kinase (20 nM α or δ, 40 nM β or γ isoform) are incubated with compound for 15 minutes at room temperature in reaction buffer (15 mM HEPES pH 7.4, 20 mM NaCl, 1 mM EGTA, 0.02% Tween 20, 10 mM MgCl2, 0.2 mg/mL bovine-γ-globulins) followed by addition of ATP/diC8-PtdInsP mixture to give final concentrations of 3 mM ATP and 500 uM diC8-PtdInsP. Reactions are incubated at room temperature for 2 hours followed by addition of 25 uL of stop solution. After a 40-minute incubation at room temperature, 50 uL of Promega detection mix is added followed by incubation for 1 hour at room temperature. Plates are then read on Envision plate reader in luminescence mode. Data are converted to % inhibition using the following equation below:
(§4) [formula] where S is the sample luminescence, Pos is a positive control without added PI3K, Neg is the negative control without added compound. Data are then plotted as % inhibition vs compound concentration. Data fit to 4 parameter logistic equation to determine IC50 values: […]

In another experiment the target is PI3K β (Homo sapiens, UniProt P42338). Kind of experiment: PI3-Kinase in vitro IC50 assay, β isoform. The experiment is classed as biochemical. An excerpt:
A PI3-Kinase HTRF® assay kit (cat No. 33-016) purchased from Millipore Corporation is used to screen compounds provided herein. This assay uses specific, high affinity binding of the GRP1 pleckstrin homology (PH) domain to PIP3, the product of a Class 1A or 1B PI3 Kinase acting on its physiological substrate PIP2. During the detection phase of the assay, a complex is generated between the GST-tagged PH domain and biotinylated short chain PIP3. The biotinylated PIP3 and the GST-tagged PH domain recruited fluorophores (Streptavidin-Allophycocyanin and Europium-labeled anti-GST respectively) to form the fluorescence resonance energy transfer (FRET) architecture, generating a stable time-resolved FRET signal. The FRET complex is disrupted in a competitive manner by non-biotinylated PIP3, a product formed in the PI3 Kinase assay. PI3 Kinase α, β, γ or δ activity is assayed using the PI3 Kinase HTRF®, assay kit (catalogue No. 33-016) purchased from Millipore Corporation. Purified recombinant PI3Kα (catalogue No. 14-602-K), PI3Kβ (catalogue No. 14-603-K), PI3Kγ (catalogue No. 14-558-K), and PI3Kδ (catalogue No. 14-604-K) are obtained from Millipore Corporation. Purified recombinant PI3K enzyme is used to catalyze the phosphorylation of phosphatidylinositol 4,5-bisphosphate (PIP2 at 10 μM) to phosphatidylinositol 3,4,5-trisphosphate (PIP3) in the presence of 10 μM ATP. The assay is carried out in 384-well format and detected using a Perkin Elmer EnVision Xcite Multilabel Reader. Emission ratios are converted into percent inhibitions and imported into GraphPad Prism software. The concentration necessary to achieve inhibition of enzyme activity by 50% (IC50) is calculated using concentrations ranging from 20 μM to 0.1 nM (12-point curve), IC50 values are determined using a nonlinear regression model available in GraphPad Prism 5. Promega ADP-Glo Max assay kit (Cat. No. V7002) can be utilized to determine IC50 values for α, β, δ and γ isoforms of human Class I PI3 kinases (Millipore). Samples of kinase (20 nM α or δ, 40 nM β or γ isoform) are incubated with compound for 15 minutes at room temperature in reaction buffer (15 mM HEPES pH 7.4, 20 mM NaCl, 1 mM EGTA, 0.02% Tween 20, 10 mM MgCl2, 0.2 mg/mL bovine-γ-globulins) followed by addition of ATP/diC8-PtdInsP mixture to give final concentrations of 3 mM ATP and 500 uM diC8-PtdInsP. Reactions are incubated at room temperature for 2 hours followed by addition of 25 uL of stop solution. After a 40-minute incubation at room temperature, 50 uL of Promega detection mix is added followed by incubation for 1 hour at room temperature. Plates are then read on Envision plate reader in luminescence mode. Data are converted to % inhibition using the following equation below: [formula] where S is the sample luminescence, Pos is a positive control without added PI3K, Neg is the negative control without added compound. Data are then plotted as % inhibition vs compound concentration. Data fit to 4 parameter logistic equation to determine IC50 values: [formula]

Another experiment concerns the target PI3K δ (Homo sapiens (Human), UniProt O00329). The experiment is described as follows: PI3-Kinase in vitro IC50 assay, δ isoform. The experiment is classed as biochemical.
Excerpt: as §1, §2, §3, §4

The target in a further experiment is PI3K γ (Homo sapiens (Human), UniProt P48736). The experiment is described as follows: PI3-Kinase in vitro IC50 assay, γ isoform. The class given is biochemical. Particulars: for IC50: in vitro; for PI3K δ/PI3K γ IC50 (selectivity): ratio of PI3K δ IC50 to PI3K γ IC50.
Sequence of PI3K γ (P48736 whole entry, canonical isoform): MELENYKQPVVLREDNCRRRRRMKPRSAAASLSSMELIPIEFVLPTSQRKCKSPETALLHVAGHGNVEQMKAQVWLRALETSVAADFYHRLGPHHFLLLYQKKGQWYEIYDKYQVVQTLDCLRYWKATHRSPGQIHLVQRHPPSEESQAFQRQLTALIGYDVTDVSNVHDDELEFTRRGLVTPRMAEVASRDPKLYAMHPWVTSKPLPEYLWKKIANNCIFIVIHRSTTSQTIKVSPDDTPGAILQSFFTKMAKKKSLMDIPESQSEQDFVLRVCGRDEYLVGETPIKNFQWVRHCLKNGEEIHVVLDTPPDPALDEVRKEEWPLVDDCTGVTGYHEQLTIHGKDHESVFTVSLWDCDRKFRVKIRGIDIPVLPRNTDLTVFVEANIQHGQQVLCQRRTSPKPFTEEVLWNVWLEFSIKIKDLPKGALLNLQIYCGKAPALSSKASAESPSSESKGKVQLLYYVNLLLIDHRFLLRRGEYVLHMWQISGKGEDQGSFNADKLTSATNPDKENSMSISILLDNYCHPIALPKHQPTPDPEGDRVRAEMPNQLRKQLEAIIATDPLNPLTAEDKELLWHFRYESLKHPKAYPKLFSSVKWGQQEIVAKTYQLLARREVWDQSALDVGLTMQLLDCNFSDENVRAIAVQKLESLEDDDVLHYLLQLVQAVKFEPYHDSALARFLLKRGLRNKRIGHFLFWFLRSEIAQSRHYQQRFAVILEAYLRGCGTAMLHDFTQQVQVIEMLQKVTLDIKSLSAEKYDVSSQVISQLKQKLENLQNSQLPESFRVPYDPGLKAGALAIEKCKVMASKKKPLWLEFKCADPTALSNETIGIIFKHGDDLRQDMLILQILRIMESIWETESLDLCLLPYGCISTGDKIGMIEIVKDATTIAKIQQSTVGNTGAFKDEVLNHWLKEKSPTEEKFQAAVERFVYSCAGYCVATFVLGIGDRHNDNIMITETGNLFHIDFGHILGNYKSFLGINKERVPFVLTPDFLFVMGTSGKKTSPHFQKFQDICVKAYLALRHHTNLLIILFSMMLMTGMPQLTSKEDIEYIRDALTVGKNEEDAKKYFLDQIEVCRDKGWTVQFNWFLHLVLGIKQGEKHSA
Excerpt: as §1, §2, §3, §4

A further experiment addresses p110 δ (Homo sapiens (Human), UniProt O00329). Kind of experiment: RAJI p110 δ assay (PI3K-δ selective cellular assay, phospho-AKT). The experiment is classed as cell-based. Particulars: RAJI cells stimulated with anti-human IgM. The text has this: A compound's ability in selectively inhibiting PI3K-δ can be assessed using RAJI cells, i.e., B lymphocyte cells derived from lymphoma patients. Briefly, serum-starved RAJI cells are stimulated with anti-human IgM, thereby causing signaling through the B-cell receptors, as described in, for example, He et al., Leukemia Research (2009) 33: 798-802. B-cell receptor signaling is important for the activation, differentiation, and survival of B cells and certain B-cell derived cancers. Reduction of phospho-AKT is indicative of compounds that may inhibit B-cell proliferation and function in certain diseases. By monitoring the reduction of phospho-AKT in stimulated RAJI cells (using for example, phospho-AKT antibodies), a compound's potential efficacy in selectively inhibiting PI3KS can be assessed.

The next experiment addresses p110 γ (Mus musculus (Mouse), UniProt Q9JHG7). Kind of experiment: Raw264.7 p110 γ assay (PI3K-γ selective cellular assay, phospho-AKT). The class given is cell-based. Conditions: for IC50: RAW264.7 cells stimulated with C5a, phospho-AKT; for RAJI δ/Raw264.7 γ IC50 (selectivity): ratio of RAJI p110 δ IC50 to Raw264.7 p110 γ IC50. An excerpt: A compound's ability in selectively inhibiting PI3K-γ can be assessed using RAW264.7 macrophages. Briefly, serum-starved RAW264.7 cells are stimulated with a known GPCR agonist C5a. See, e.g., Camps et al., Nature Medicine (2005) 11(9):936-943. Cells can be treated with test compounds prior to, simultaneously with, or subsequent to the stimulation by C5a. RAW 264.7 cells respond to the complement component fragment C5a through activation of the C5a receptor, and the C5a receptor activates macrophages and induces cell migration. Test compounds' ability to inhibit C5a-mediated AKT phosphorylation is indicative of selective inhibition of PI3K-γ. Thus, by monitoring the reduction of phospho-AKT in stimulated RAW 264.7 cells (using for example, phospho-AKT antibodies), a compound's potential efficacy in selectively inhibiting PI3Kγ can be assessed.
Certain compounds provided herein were tested in RAW 264.7 cell model using procedures as described above.

Sequence of PI3K β (P42338 whole entry, looked up, the tested form may be a part, canonical isoform): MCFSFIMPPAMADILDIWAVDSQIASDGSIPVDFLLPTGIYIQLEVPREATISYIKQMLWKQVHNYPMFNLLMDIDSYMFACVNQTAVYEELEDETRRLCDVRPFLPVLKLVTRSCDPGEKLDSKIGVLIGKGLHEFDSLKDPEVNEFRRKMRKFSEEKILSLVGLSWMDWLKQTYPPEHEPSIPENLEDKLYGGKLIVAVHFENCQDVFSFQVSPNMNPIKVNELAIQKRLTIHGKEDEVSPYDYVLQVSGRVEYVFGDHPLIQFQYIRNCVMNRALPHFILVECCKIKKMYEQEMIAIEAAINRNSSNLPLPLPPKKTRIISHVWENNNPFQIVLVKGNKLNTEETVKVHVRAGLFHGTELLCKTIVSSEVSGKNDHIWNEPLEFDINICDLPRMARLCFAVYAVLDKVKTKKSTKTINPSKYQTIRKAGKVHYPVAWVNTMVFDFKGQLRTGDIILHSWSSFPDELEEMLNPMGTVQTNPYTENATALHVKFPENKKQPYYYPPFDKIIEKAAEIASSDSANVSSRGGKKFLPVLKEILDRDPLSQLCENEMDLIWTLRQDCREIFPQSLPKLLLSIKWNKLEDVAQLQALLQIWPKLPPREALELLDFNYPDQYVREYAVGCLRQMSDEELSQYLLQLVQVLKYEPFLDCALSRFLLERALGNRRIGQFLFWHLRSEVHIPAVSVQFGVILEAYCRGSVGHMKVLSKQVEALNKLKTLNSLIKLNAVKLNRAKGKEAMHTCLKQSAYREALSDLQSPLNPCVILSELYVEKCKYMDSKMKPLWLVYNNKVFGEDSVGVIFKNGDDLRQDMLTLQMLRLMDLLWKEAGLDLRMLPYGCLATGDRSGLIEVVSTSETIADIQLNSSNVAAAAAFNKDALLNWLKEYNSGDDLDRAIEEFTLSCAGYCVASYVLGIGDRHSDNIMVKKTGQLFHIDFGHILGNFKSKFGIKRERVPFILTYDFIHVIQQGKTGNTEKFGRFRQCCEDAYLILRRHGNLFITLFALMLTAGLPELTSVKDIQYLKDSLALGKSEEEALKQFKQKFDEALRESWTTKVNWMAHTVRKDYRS
Sequence of p110 δ (O00329 whole entry): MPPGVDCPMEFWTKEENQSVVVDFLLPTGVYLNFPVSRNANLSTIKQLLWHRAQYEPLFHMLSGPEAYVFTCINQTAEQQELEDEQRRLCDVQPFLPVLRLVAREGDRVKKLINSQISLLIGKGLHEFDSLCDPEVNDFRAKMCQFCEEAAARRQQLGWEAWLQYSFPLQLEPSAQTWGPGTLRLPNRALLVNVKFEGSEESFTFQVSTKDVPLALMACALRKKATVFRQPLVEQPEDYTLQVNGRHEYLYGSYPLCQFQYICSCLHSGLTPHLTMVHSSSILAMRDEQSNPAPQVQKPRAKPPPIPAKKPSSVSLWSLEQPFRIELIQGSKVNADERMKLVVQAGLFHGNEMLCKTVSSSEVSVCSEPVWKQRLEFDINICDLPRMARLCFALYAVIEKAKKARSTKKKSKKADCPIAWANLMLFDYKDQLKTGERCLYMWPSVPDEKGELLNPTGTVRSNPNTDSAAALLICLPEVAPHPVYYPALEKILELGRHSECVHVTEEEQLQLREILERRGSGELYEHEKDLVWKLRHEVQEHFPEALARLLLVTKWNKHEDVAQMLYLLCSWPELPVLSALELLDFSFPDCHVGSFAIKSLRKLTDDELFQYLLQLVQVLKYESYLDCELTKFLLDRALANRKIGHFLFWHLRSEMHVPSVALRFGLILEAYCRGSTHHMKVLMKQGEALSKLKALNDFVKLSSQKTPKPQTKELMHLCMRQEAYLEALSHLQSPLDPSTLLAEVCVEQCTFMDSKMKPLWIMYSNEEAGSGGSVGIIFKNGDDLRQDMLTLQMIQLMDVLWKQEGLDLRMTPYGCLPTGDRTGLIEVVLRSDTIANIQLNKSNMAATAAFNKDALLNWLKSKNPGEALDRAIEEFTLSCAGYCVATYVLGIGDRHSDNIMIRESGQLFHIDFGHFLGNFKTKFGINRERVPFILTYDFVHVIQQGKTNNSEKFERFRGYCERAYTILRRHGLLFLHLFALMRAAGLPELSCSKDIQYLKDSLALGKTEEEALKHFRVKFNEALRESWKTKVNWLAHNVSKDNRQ
Sequence of p110 δ (P27986 whole entry partner): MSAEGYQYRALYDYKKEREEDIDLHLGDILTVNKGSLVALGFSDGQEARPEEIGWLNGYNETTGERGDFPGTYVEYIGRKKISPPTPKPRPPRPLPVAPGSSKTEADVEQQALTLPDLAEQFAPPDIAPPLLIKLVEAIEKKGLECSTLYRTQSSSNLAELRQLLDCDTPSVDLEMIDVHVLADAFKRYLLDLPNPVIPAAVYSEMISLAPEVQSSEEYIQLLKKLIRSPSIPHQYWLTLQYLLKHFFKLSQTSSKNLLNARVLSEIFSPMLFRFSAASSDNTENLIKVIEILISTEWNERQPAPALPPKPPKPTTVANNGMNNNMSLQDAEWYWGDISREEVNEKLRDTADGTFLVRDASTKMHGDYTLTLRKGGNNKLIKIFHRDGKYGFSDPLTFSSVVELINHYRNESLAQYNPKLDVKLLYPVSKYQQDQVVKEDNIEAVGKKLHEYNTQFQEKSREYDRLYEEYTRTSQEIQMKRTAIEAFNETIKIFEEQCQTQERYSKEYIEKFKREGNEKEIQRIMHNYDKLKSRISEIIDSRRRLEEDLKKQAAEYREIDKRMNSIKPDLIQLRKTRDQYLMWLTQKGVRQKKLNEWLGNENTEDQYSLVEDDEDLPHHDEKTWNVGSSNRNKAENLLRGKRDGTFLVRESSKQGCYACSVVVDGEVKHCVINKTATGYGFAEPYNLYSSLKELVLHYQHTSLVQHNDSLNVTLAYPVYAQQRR
Sequence of PI3K δ (O00329 whole entry, canonical isoform): as the sequence (O00329 whole entry) above
Sequence of PI3K δ (P27986 whole entry partner, canonical isoform): as the sequence (P27986 whole entry partner) above

For `C[C@H](NC(=O)c1c(N)nn2cccnc12)c1oc2cccc(C#Cc3cnn(C)c3)c2c(=O)c1-c1ccccc1` [Compound 103S], the IC50 against PI3K α lay within 5 to 10 µM; against PI3K β it was 5 to 10 µM; against PI3K δ it was 5 to 10 µM; at PI3K γ, 0.1 to 0.5 µM; against p110 δ, 1 to 10 µM; at p110 γ, 0.001 to 0.05 µM. Besides, the “PI3K δ/PI3K γ IC50 (selectivity)” value on PI3K γ was “X (X = 10 to <50)”. For the same compound, at p110 γ, the “RAJI δ/Raw264.7 γ IC50 (selectivity)” value is “Y (Y = 50 to <850)”.

Consider `C[C@@H](NC(=O)c1c(N)nn2cccnc12)c1oc2cccc(C#Cc3cnn(C)c3)c2c(=O)c1-c1ccccc1` [Compound 103R], for which the IC50 at PI3K α was 5 to 10 µM; against PI3K β it was 5 to 10 µM; against PI3K δ it was 5 to 10 µM; against PI3K γ, greater than 5 µM; against p110 δ it was 1 to 10 µM; against p110 γ, 0.1 to 10 µM. Moreover, the “PI3K δ/PI3K γ IC50 (selectivity)” value on PI3K γ was “V (V = 0.1 to 1)”. On p110 γ, the “RAJI δ/Raw264.7 γ IC50 (selectivity)” value is “X (X = 10 to <50)”.

`C[C@@H](NC(=O)c1c(N)nn2cccnc12)c1nc2cccc(C#Cc3cnn(C)c3)c2cc1-c1ccccc1` [Compound 181R]: the IC50 at PI3K α is 5 to 10 µM; at PI3K β it was 5 to 10 µM; at PI3K δ, 5 to 10 µM; against PI3K γ, greater than 5 µM; on p110 δ, 1 to 10 µM; on p110 γ, 0.1 to 10 µM. Also, the “PI3K δ/PI3K γ IC50 (selectivity)” value at PI3K γ is “V (V = 0.1 to 1)”. For the same compound, the “RAJI δ/Raw264.7 γ IC50 (selectivity)” value on p110 γ is listed as “V (V = 0.1 to 1)”.

As to `C[C@@H](NC(=O)c1c(N)nn2cccnc12)c1cc2cccc(C#Cc3cnn(C)c3)c2nc1-c1ccccc1` [Compound 175R], the IC50 is 5 to 10 µM on PI3K α, 5 to 10 µM against PI3K β, 5 to 10 µM at PI3K δ and greater than 5 µM at PI3K γ. Besides, the “PI3K δ/PI3K γ IC50 (selectivity)” value at PI3K γ is on record as “V (V = 0.1 to 1)”.

`C[C@H](NC(=O)c1c(N)nn2cccnc12)c1nc2cccc(C#Cc3cnn(C)c3)c2cc1-c1ccccc1` [Compound 181S]: the IC50 against PI3K α was 5 to 10 µM; at PI3K β it was 5 to 10 µM; on PI3K δ, 5 to 10 µM; against PI3K γ, greater than 5 µM; at p110 δ, 1 to 10 µM; on p110 γ it was 0.1 to 10 µM. The “PI3K δ/PI3K γ IC50 (selectivity)” value at PI3K γ is “V (V = 0.1 to 1)”. Further, the “RAJI δ/Raw264.7 γ IC50 (selectivity)” value on p110 γ was “Y (Y = 50 to <850)”.

Turning to `C[C@H](NC(=O)c1c(N)nn2cccnc12)c1cc2cccc(C#Cc3cnn(C)c3)c2nc1-c1ccccc1` [Compound 175S], the IC50 on PI3K α lay within 5 to 10 µM; against PI3K β, 5 to 10 µM; at PI3K δ it was 5 to 10 µM; against PI3K γ, 0.1 to 0.5 µM; against p110 δ, 0.1 to 0.5 µM; against p110 γ, 0.001 to 0.05 µM. For the same compound, the “PI3K δ/PI3K γ IC50 (selectivity)” value on PI3K γ is on record as “X (X = 10 to <50)”. For the same compound, the “RAJI δ/Raw264.7 γ IC50 (selectivity)” value on p110 γ is “W (W = >1 to <10)”.

For `CC(NC(=O)c1c(N)nn2cccnc12)c1oc2cccc(C#Cc3cnn(C)c3)c2c(=O)c1-c1ccccc1` (centres unmarked) [Compound 103], the half-maximal inhibitory concentration (IC50) at PI3K α is 5 to 10 µM; on PI3K β, 5 to 10 µM; at PI3K δ, 5 to 10 µM; against PI3K γ, 1 to 5 µM; on p110 δ it was 1 to 10 µM; against p110 γ it was 0.05 to 0.1 µM. The “PI3K δ/PI3K γ IC50 (selectivity)” value on PI3K γ was “W (W = >1 to <10)”. For the same compound, the “RAJI δ/Raw264.7 γ IC50 (selectivity)” value on p110 γ is reported as “X (X = 10 to <50)”.
